The record followed here is US20090325959A1 (priority 2008, published 2009).

Structures are written as SMILES. pKi: −log10 of the molar value. Read-outs that look alike come from different tables or passages of the source.

For assay [1], the target named is T1, ROCK2 (Homo sapiens, UniProt O75116).
T1 construct: purchased Upstate/Chemicon 14-451
Description: Rho kinase inhibition assay (IMAP fluorescence polarization), ROCK2.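 Further: kinase reaction started with 10 µM ATP and run 60 min at room temperature, then phosphorylated substrate captured on IMAP beads for 30 min and fluorescence polarization read in mP.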 The format is biochemical. Particulars: read-out: ROCK2 Ki, Avg. Background: In fluorescence polarisation assays a small probe gives low polarisation when free and higher when bound to something large.
Description: (§1) Following the pre-incubation, 10 μM ATP was added to initiate the reaction. After 60 minutes at room temperature, Molecular Devices IMAP™ binding solution was added to bind phosphorylated substrate. After 30 minutes of incubation in the presence of the IMAP™ beads, the fluorescence polarization was read and the ratio was reported as mP. IC50 values for compounds and EC50 values for ATP were calculated using the Prism software from Graphpad.

Assay [2] concerns the target T2, ROCK1 (Homo sapiens, UniProt Q13464).
T2 construct: purchased Upstate/Chemicon 14-601
The assay can be described thus: Rho kinase inhibition assay (IMAP fluorescence polarization), ROCK1.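 Further: kinase reaction run 60 min at room temperature, then phosphorylated substrate captured on IMAP beads for 30 min, with fluorescence polarization read in mP.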 The format is biochemical.
Description: as §1

T1 sequence (O75116 11-552 limits assumed): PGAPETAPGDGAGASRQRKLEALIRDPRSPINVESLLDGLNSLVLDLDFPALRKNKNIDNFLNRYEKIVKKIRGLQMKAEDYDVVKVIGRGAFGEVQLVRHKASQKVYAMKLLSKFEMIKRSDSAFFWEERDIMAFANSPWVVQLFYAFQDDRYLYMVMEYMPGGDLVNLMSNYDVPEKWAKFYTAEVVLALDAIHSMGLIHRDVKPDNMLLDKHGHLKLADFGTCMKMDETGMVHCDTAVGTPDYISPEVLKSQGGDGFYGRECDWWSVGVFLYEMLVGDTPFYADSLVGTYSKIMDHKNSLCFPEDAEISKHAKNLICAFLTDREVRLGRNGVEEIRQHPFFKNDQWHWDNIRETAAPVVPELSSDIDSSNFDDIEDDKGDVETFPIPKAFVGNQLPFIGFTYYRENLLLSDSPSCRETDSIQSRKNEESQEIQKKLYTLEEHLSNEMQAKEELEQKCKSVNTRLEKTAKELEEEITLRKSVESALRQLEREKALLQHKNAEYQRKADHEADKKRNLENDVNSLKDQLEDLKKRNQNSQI
T2 sequence (Q13464 17-535 limits assumed): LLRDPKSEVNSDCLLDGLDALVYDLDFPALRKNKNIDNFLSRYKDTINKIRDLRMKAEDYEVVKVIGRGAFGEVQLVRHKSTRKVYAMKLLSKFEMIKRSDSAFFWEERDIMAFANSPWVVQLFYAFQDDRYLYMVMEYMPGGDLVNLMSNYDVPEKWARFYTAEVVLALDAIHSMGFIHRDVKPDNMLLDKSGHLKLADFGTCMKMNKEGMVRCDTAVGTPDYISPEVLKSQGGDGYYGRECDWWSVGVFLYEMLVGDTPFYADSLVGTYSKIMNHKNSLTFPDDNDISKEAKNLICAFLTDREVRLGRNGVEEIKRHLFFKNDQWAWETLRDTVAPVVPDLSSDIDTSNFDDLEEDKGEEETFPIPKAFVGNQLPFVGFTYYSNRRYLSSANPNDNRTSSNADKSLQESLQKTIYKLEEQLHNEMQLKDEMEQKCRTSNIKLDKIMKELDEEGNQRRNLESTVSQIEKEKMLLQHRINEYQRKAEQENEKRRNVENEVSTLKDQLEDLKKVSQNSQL

Turning to `Clc1ccc(CN2CCC[C@H](Nc3ccc4[nH]ncc4c3)C2)cc1Cl` [Compound 1.080, (S)-N-(1-(3,4-dichlorobenzyl)piperidin-3-yl)-1H-indazol-5-amine], the negative logarithm of the Ki (pKi) – broadly, −log10 of the Ki, conventionally taken in molar units – is 7.82 in assay [1] (10 μM ATP) and 6.88 in assay [2] (Avg, 10 μM ATP). In the case of `OCCOc1cccc(CN2CCC[C@H](Nc3ccc4[nH]ncc4c3)C2)c1` [Compound 1.090, (S)-2-(3-((3-(1H-indazol-5-ylamino)piperidin-1-yl)methyl)phenoxy)ethanol], the pKi is 7.60 in assay [1] (10 μM ATP) and 6.55 in assay [2] (Avg, 10 μM ATP). The matching figures for `CS(=O)(=O)Nc1cccc(CN2CC[C@H](Nc3ccc4[nH]ncc4c3)C2)c1` [Compound 1.095, (S)-N-(3-((3-(1H-indazol-5-ylamino)pyrrolidin-1-yl)methyl)phenyl)methanesulfonamide]: 7.31 and 6.56. On to `NC(=O)COc1cccc(CN2CCC[C@@H](Nc3ccc4[nH]ncc4c3)C2)c1` [Compound 1.098, 2-(3-((3-(1H-indazol-5-ylamino)piperidin-1-yl)methyl)phenoxy)acetamide], for which the pKi in assay [1] (10 μM ATP) was 7.60. In the case of `OC[C@@H](O)COc1cccc(CN2CCC[C@@H](Nc3ccc4[nH]ncc4c3)C2)c1` [Compound 1.115, (R)-3-(3-(((R)-3-(1H-indazol-5-ylamino)piperidin-1-yl)methyl)phenoxy)propane-1,2-diol], the pKi in assay [1] (10 μM ATP) was 7.69; in assay [2] (Avg, 10 μM ATP), 7.05. The matching figures for `C[C@@H](O)COc1cccc(CN2CCC[C@@H](Nc3ccc4[nH]ncc4c3)C2)c1` [Compound 1.116, (R)-1-(3-(((R)-3-(1H-indazol-5-ylamino)piperidin-1-yl)methyl)phenoxy)propan-2-ol]: 7.31 and 6.59. Taken in the same sequence, the figures for `OC[C@@H](O)COc1cccc(CN2CCC[C@H](Nc3ccc4[nH]ncc4c3)C2)c1` [Compound 1.117, (R)-3-(3-(((S)-3-(1H-indazol-5-ylamino)piperidin-1-yl)methyl)phenoxy)propane-1,2-diol] were 7.45 and 6.68. Turning to `C[C@@H](O)COc1cccc(CN2CCC[C@H](Nc3ccc4[nH]ncc4c3)C2)c1` [Compound 1.118, (R)-1-(3-(((S)-3-(1H-indazol-5-ylamino)piperidin-1-yl)methyl)phenoxy)propan-2-ol], the pKi in assay [1] (10 μM ATP) is 7.09; in assay [2] (Avg, 10 μM ATP), 6.34. Take `O=C(O)COc1cccc(CN2CCC[C@@H](Nc3ccc4[nH]ncc4c3)C2)c1` [Compound 1.125, (R)-2-(3-((3-(1H-indazol-5-ylamino)piperidin-1-yl)methyl)phenoxy)acetic acid]: the pKi was 7.29 in assay [1] (10 μM ATP) and 6.25 in assay [2] (Avg, 10 μM ATP).

For the compound `OCCOc1cccc(CN2CCC(Nc3ccc4[nH]ncc4c3)CC2)c1` [Compound 1.130, 2-(3-((4-(1H-indazol-5-ylamino)piperidin-1-yl)methyl)phenoxy)ethanol], the pKi is 6.85 in assay [1] (10 μM ATP) and 6.24 in assay [2] (Avg, 10 μM ATP). Take `CS(=O)(=O)Cc1cccc(CN2CCC[C@@H](Nc3ccc4[nH]ncc4c3)C2)c1` [Compound 1.139, (R)-N-(1-(3-(methylsuifonylmethyl)benzyl)piperidin-3-yl)-1H-indazol-5-amine]: the pKi in assay [1] (10 μM ATP) is 7.63; in assay [2] (Avg, 10 μM ATP), 6.70.

For the compound `CC(C)(C)OC(=O)NCc1cccc(CN2CCC[C@@H](Nc3ccc4[nH]ncc4c3)C2)c1` [Compound 1.140, (R)-tert-butyl 3-((3-(1H-indazol-5-ylamino)piperidin-1-yl)methyl)benzylcarbamate], the pKi in assay [1] (10 μM ATP) is 7.48; in assay [2] (Avg, 10 μM ATP) it was 6.63. Taken in the same sequence, the figures for `Clc1ccc(CN2CCC[C@@H](Nc3ccc4[nH]ncc4c3)C2)cc1Cl` [Compound 1.144, (R)-N-(1-(3,4-dichlorobenzyl)piperidin-3-yl)-1H-indazol-5-amine] were 7.71 and 7.01.

Consider `CCOC(=O)COc1cccc(CN2CCC[C@@H](Nc3ccc4[nH]ncc4c3)C2)c1` [Compound 1.147, (R)-ethyl 2-(3-((3-(1H-indazol-5-ylamino)piperidin-1-yl)methyl)phenoxy)acetate], for which the pKi in assay [1] (10 μM ATP) is 7.34; in assay [2] (Avg, 10 μM ATP) it was 7.23.

In the case of `CS(=O)(=O)c1cccc(CN2CCC[C@@H](Nc3ccc4[nH]ncc4c3)C2)c1` [Compound 1.160, (R)-N-(1-(3-(methylsulfonyl)benzyl)piperidin-3-yl)-1H-indazol-5-amine], the pKi in assay [1] (10 μM ATP) is 7.31; in assay [2] (Avg, 10 μM ATP), 6.66. Consider `CCSc1ccc(CN2CCC[C@H](Nc3ccc4[nH]ncc4c3)C2)cc1` [Compound 1.168, (S)-N-(1-(4-(ethylthio)benzyl)piperidin-3-yl)-1H-indazol-5-amine], for which the pKi in assay [1] (10 μM ATP) was 7.64; in assay [2] (Avg, 10 μM ATP), 6.79. Take `FC(F)(F)c1cccc(CN2CCC[C@H](Nc3ccc4[nH]ncc4c3)C2)c1` [Compound 1.169, (S)-N-(1-(3-(trifluoromethyl)benzyl)piperidin-3-yl)-1H-indazol-5-amine]: the pKi is 7.47 in assay [1] (10 μM ATP) and 6.59 in assay [2] (Avg, 10 μM ATP). Regarding `Cc1cccc(CN2CCC[C@@H](Nc3ccc4[nH]ncc4c3)C2)c1C` [Compound 1.172, (R)-N-(1-(2,3-dimethylbenzyl)piperidin-3-yl)-1H-indazol-5-amine], the pKi in assay [1] (10 μM ATP) is 7.69; in assay [2] (Avg, 10 μM ATP), 6.99.

For `c1cc2c(cc1CN1CCC[C@@H](Nc3ccc4[nH]ncc4c3)C1)OCCO2` [Compound 1.177, (R)-N-(1-((2,3-dihydrobenzo[b][1,4]dioxin-6-yl)methyl)piperidin-3-yl)-1H-indazol-5-amine], the pKi is 7.74 in assay [1] (10 μM ATP) and 6.81 in assay [2] (Avg, 10 μM ATP). As for `CCOc1cccc(CN2CCC[C@H](Nc3ccc4[nH]ncc4c3)C2)c1` [Compound 1.179, (S)-N-(1-(3-ethoxybenzyl)piperidin-3-yl)-1H-indazol-5-amine], the negative logarithm of the Ki (pKi) in assay [1] (10 μM ATP) was 7.71; in assay [2] (Avg, 10 μM ATP) it was 6.53. In the case of `CS(=O)(=O)c1ccc(CN2CCC[C@H](Nc3ccc4[nH]ncc4c3)C2)cc1` [Compound 1.181, (S)-N-(1-(4-(methylsulfonyl)benzyl)piperidin-3-yl)-1H-indazol-5-amine], the pKi was 7.48 in assay [1] (10 μM ATP) and 6.25 in assay [2] (Avg, 10 μM ATP). Taken in the same sequence, the figures for `CS(=O)(=O)c1cccc(CN2CCC[C@H](Nc3ccc4[nH]ncc4c3)C2)c1` [Compound 1.182, (S)-N-(1-(3-(methylsulfonyl)benzyl)piperidin-3-yl)-1H-indazol-5-amine] were 7.51 and 6.39. `NCc1cccc(CN2CCC[C@H](Nc3ccc4[nH]ncc4c3)C2)c1` [Compound 1.184, (S)-N-(1-(3-(aminomethyl)benzyl)piperidin-3-yl)-1H-indazol-5-amine]: the pKi is 7.04 in assay [1] (10 μM ATP) and 6.07 in assay [2] (Avg, 10 μM ATP). Taken in the same sequence, the figures for `CC(C)(C)OC(=O)COc1cccc(CN2CCC[C@H](Nc3ccc4[nH]ncc4c3)C2)c1` [Compound 1.187, (S)-tert-butyl 2-(3-((3-(1H-indazol-5-ylamino)piperidin-1-yl)methyl)phenoxy)acetate] were 7.76 and 6.53.

Regarding `NCc1ccc(CN2CCC[C@@H](Nc3ccc4[nH]ncc4c3)C2)cc1` [Compound 1.188, (R)-N-(1-(4-(aminomethyl)benzyl)piperidin-3-yl)-1H-indazol-5-amine], the pKi in assay [1] was 6.19. Take `CCSc1ccc(CN2CCC[C@@H](Nc3ccc4[nH]ncc4c3)C2)cc1` [Compound 1.189, (R)-N-(1-(4-(ethylthio)benzyl)piperidin-3-yl)-1H-indazol-5-amine]: the pKi is 7.46 in assay [1] (10 μM ATP) and 6.73 in assay [2] (Avg, 10 μM ATP). For `FC(F)(F)c1cccc(CN2CCC[C@@H](Nc3ccc4[nH]ncc4c3)C2)c1` [Compound 1.190, (R)-N-(1-(3-(trifluoromethyl)benzyl)piperidin-3-yl)-1H-indazol-5-amine], the pKi in assay [1] (10 μM ATP) was 7.14; in assay [2] (Avg, 10 μM ATP), 6.49. Regarding `Clc1cccc(CN2CCC[C@@H](Nc3ccc4[nH]ncc4c3)C2)c1` [Compound 1.191, (R)-N-(1-(3-chlorobenzyl)piperidin-3-yl)-1H-indazol-5-amine], the pKi in assay [1] (10 μM ATP) is 7.48; in assay [2] (Avg, 10 μM ATP), 6.83. Regarding `Cc1cccc(CN2CCC[C@@H](Nc3ccc4[nH]ncc4c3)C2)c1` [Compound 1.192, (R)-N-(1-(3-methylbenzyl)piperidin-3-yl)-1H-indazol-5-amine], the pKi is 7.42 in assay [1] (10 μM ATP) and 6.80 in assay [2] (Avg, 10 μM ATP). Regarding `CC(=O)NCc1cccc(CN2CCC[C@@H](Nc3ccc4[nH]ncc4c3)C2)c1` [Compound 1.194], the negative logarithm of the Ki (pKi) in assay [1] (10 μM ATP) is 7.69; in assay [2] (Avg, 10 μM ATP), 6.76.

For the compound `O=C(O)COc1cccc(CN2CCC[C@H](Nc3ccc4[nH]ncc4c3)C2)c1` [Compound 1.196, (S)-2-(3-((3-(1H-indazol-5-ylamino)piperidin-1-yl)methyl)phenoxy)acetic acid], the pKi was 7.40 in assay [1] (10 μM ATP) and 6.15 in assay [2] (Avg, 10 μM ATP). Turning to `Clc1ccc(CN2CC[C@@H](Nc3ccc4[nH]ncc4c3)C2)cc1` [Compound 1.241, (R)-N-(1-(4-chlorobenzyl)pyrrolidin-3-yl)-1H-indazol-5-amine], the negative logarithm of the Ki (pKi) in assay [2] (Avg, 10 μM ATP) was 7.19. As for `CN(C)S(=O)(=O)Nc1cccc(CN2CCC[C@H](Nc3ccc4[nH]ncc4c3)C2)c1` [Compound 1.261], the pKi is 6.51 in assay [2] (Avg, 10 μM ATP) and 6.51 in assay [2] (average Ki). As for `Cc1c(CN2CCC[C@H](Nc3ccc4[nH]ncc4c3)C2)cccc1NS(=O)(=O)N(C)C` [Compound 1.275], the pKi in assay [2] (Avg, 10 μM ATP) was 6.40; in assay [2] (average Ki), 6.40. For the compound `Cc1ccc(CN2CC[C@@H](Nc3cccc4cnccc34)C2)cc1NS(=O)(=O)N(C)C` [Compound 2.077], the negative logarithm of the Ki (pKi) in assay [2] (Avg, 10 μM ATP) was 7.47; in assay [2] (average Ki), 7.47.

On to `COc1nccc2c(N[C@@H]3CCN(Cc4ccc(C)c(OCCO)c4)C3)cccc12` [Compound 2.094, (R)-2-(5-((3-(1-methoxyisoquinolin-5-ylamino)pyrrolidin-1-yl)methyl)-2-methylphenoxy)ethanol], for which the pKi in assay [2] (Avg, 10 μM ATP) was 4.78. Turning to `COc1c(CN2CC[C@@H](Nc3cccc4cnccc34)C2)cccc1NS(=O)(=O)N(C)C` [Compound 2.097], the negative logarithm of the Ki (pKi) was 7.45 in assay [2] (Avg, 10 μM ATP) and 7.45 in assay [2] (average Ki).

As for `CC1CNCCN1S(=O)(=O)c1cccc2cnccc12` (centres unmarked) [Compound H7, reference compound], in assay [1] (10 μM ATP), the pKi is 6.90.
